The values that follow come from ChEMBL document CHEMBL1158933, “A new polyhalogenated monoterpene from the red alga Plocamium cartilagineum” (J Nat Prod, 1990).

Active and inactive are the calls of the source. No cut-off for these calls is given here.

For series [1], the system named is Bacillus subtilis. The series can be described thus: Antibacterial activity against Bacillus subtilis ATCC 6633 up to 24 ug by bioautographic test. It is filed as functional, organism-based.
Series [2] has as its system Micrococcus luteus. Kind of series: Antibacterial activity against Micrococcus luteus ATCC 9341 up to 24 ug by bioautographic test. It is filed as functional, organism-based.
Series [3] has as its system Escherichia coli. The series can be described thus: Antibacterial activity against Escherichia coli ATCC 25922 up to 24 ug by bioautographic test. It is filed as functional, organism-based.
Series [4] in a line: Toxicity against Artemia salina assessed as mortality at 10 ug/ml. It is filed as organism-based. As to conditions: in vivo, read-out: Activity.
The nature of series [5]: Toxicity against Artemia salina assessed as mortality at 100 ug/ml. It is filed as organism-based. As to conditions: in vivo, read-out: Activity.
The subject of series [6] is Penicillium oxalicum. Kind of series: Antifungal activity against Penicillium oxalicum CBS 219.30 by bioautographic test. It is filed as functional.
Series [7] relates to Biomphalaria glabrata. Kind of series: Molluscicidal activity in Biomphalaria glabrata assessed as mortality at 2.5 ppm. It is filed as functional.
The test system of series [8] is Artemia salina. Kind of series: Toxicity against Artemia salina assessed as mortality. It is filed as organism-based. As to conditions: in vivo.
Series [9] deals with Biomphalaria glabrata. The series can be described thus: Molluscicidal activity in Biomphalaria glabrata assessed as mortality at 6 ppm. It is filed as functional, organism-based.
The nature of series [10]: Toxicity against Artemia salina assessed as mortality at 12 ug/ml. As to conditions: in vivo, read-out: Activity. It is filed as organism-based.
Series [11] is described as follows: Toxicity against Artemia salina assessed as mortality at 120 ug/ml. It is filed as organism-based. As to conditions: in vivo, read-out: Activity.
Series [12] concerns Biomphalaria glabrata. Kind of series: Molluscicidal activity in Biomphalaria glabrata assessed as mortality at 5 ppm. It is filed as functional.

On to `C[C@]1(Cl)C[C@](C)(Br)[C@@H](/C=C/Cl)C[C@H]1Br`, for which the outcome in series [1], in series [2] and in series [3] was inactive. Further, the mortality at 10 ug/ml in [4] was found to be 20%. The mortality at 100 ug/ml in series [5] is 100%. The molecule further gave an MIC in series [6] of 10 µg. For the same molecule, the Activity in series [7] was 100%.
Turning to `C=C(/C=C/[C@@H](Cl)[C@](C)(Cl)/C=C/Br)CCl` (relative stereo), the Activity entry in series [8] is “Not Active”. Moreover, the outcome in series [9], in series [1], in [2] and in series [3] was inactive. Moreover, in [6], the MIC came out at 0.1 µg.
As for `C[C@]1(Cl)C[C@](C)(/C=C/Cl)[C@H](Br)C[C@@H]1Cl`, the mortality at 12 ug/ml in [10] was 26%. Moreover, the outcome in [1], in [2] and in series [3] was inactive. In series [6], this molecule displayed an MIC of 0.6 µg. In [11], the mortality at 120 ug/ml turned out to be 100%. In [12], the Activity is given as 100%.
Consider `C[C@@](Cl)(/C=C/Br)[C@@H](Cl)/C=C/C(Cl)(CCl)CBr` (stereo partly specified), for which the Activity entry in series [8] is “Not Active”. In addition, the result in series [9], in series [1], in series [2] and in series [3] was inactive. In [6], this molecule registered an MIC of 0.1 µg.
